Counter-ions that a name gives are not always drawn.
Molecular target: T1, human SSAO (Homo sapiens, UniProt Q16853)
T1 construct: made in house
T1 sequence (Q16853 29-763 limits assumed): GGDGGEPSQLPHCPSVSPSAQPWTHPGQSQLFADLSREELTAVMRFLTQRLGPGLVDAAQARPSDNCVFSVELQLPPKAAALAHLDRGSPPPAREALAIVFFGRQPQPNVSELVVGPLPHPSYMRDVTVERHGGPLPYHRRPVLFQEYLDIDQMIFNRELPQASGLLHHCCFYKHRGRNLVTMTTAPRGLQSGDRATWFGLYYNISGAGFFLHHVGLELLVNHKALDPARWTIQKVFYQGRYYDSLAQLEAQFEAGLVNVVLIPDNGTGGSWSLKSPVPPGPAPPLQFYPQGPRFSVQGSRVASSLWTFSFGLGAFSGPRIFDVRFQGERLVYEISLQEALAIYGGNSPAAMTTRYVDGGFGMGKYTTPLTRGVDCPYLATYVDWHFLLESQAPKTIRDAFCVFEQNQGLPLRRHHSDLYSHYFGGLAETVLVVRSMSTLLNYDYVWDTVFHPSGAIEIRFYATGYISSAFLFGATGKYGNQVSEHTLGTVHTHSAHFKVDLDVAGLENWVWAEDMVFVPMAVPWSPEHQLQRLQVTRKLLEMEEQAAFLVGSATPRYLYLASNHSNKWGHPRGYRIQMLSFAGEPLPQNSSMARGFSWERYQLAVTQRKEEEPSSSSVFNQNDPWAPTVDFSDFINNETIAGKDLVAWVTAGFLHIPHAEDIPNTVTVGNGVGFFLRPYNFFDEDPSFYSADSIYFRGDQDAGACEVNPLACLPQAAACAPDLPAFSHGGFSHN
Test: SSAO inhibitory activity (HRP-coupled hydrogen peroxide detection or 14C-benzaldehyde detection, benzylamine substrate)
Type: biochemical
Details: purified recombinantly expressed human SSAO, benzylamine as substrate, RT
Experimental: All primary assays were performed at RT. with purified recombinantly expressed human SSAO. Enzyme was prepared essentially as described in Öhman et al. (Protein Expression and Purification 46 (2006) 321-331). In addition, secondary- and selectivity assays were performed using SSAO prepared from various tissues or purified rat recombinant SSAO. The enzyme activity was assayed with benzylamine as substrate by measuring either benzaldehyde production, using ^14C-labeled substrate, or by utilizing the production of hydrogen peroxide in a horseradish peroxidase (HRP) coupled reaction. Briefly, test compounds were dissolved in dimethyl sulfoxide (DMSO) to a concentration of 10 mM. Dose-response measurements were assayed by either creating 1:10 serial dilutions in DMSO to produce a 7 point curve or by making 1:3 serial dilutions in DMSO to produce 11 point curves. The top concentrations were adjusted depending on the potency of the compounds and subsequent dilution in reaction buffer yielded a final DMSO concentration ≦2%.
In a horseradish peroxidase (HRP) coupled reaction, hydrogen peroxide oxidation of 10-acetyl-3,7-dihydroxyphenoxazine produced resorufin, which is a highly fluorescent compound (Zhout and Panchuk-Voloshina. Analytical Biochemistry 253 (1997) 169-174; Amplex® Red Hydrogen Peroxideperoxidase Assay kit, Invitrogen A22188). Enzyme and compounds in 50 mM sodium phosphate, pH 7.4 were set to pre-incubate in flat-bottomed microtiter plates for approximately 15 minutes before initiating the reaction by addition of a mixture of HRP, benzylamine and Amplex reagent. Benzylamine concentration was fixed at a concentration corresponding to the Michaelis constant, determined using standard procedures. Fluorescence intensity was then measured at several time points during 1-2 hours, exciting at 544 nm and reading the emission at 590 nm. For the human SSAO assay final concentrations of the reagents in the assay wells were: SSAO enzyme 1 μg/ml, benzylamine 100 μM, Amplex reagent 20 μM, HRP 0.1 U/mL and varying concentrations of test compound. The inhibition was measured as % decrease of the signal compared to a control without inhibitor (only diluted DMSO). The background signal from a sample containing no SSAO enzyme was subtracted from all data points. Data was fitted to a four parameter logistic model and IC50 values were calculated using the Graph Pad Prism 4 or XLfit 4 programs.
SSAO activity was assayed using 14C-labeled benzylamine and analysed by measuring radioactive benzaldehyde. In a white 96-well optiplate (Packard), 20 μL of diluted test compound was pre-incubated at RT. with 20 μL SSAO enzyme for approximately 15 minutes with continuous agitation. All dilutions were made with PBS. The reaction was initiated by adding 20 μL of the benzylamine substrate solution containing [7-14C] Benzylamine hydrochloride (CFA589, GE Healthcare). The plate was incubated for 1 hour as above after which the reaction was stopped by acidification (10 μL 1 M HCl). Then 90 μL Micro Scint-E solution (Perkin-Elmer) was added to each well and the plate was continuously mixed for 15 minutes. Phase separation occurred instantly and activity was read in a Topcount scintillation counter (Perkin-Elmer). In the final reaction well, the human recombinant SSAO concentration was 10 μg/ml. In order to optimize sensitivity, the substrate concentration was decreased as compared to the HRP coupled assay in order to get a higher fraction of radioactive product. In the human SSAO assay, benzylamine concentration was 40 μM (0.2 μCi/mL). Data was analysed as above.

Row | Structure (SMILES) | IC50
1 | O=C(NCc1nn[nH]n1)N1CCC(c2cn(-c3ccc(Cl)cc3)c3cnccc23)CC1 [Compound 61, 4-[1-(4-Chlorophenyl)-1H-pyrrolo[2,3-c]pyridin-3-yl]-N-(2H-1,2,3,4-tetrazol-5-ylmethyl)piperidine-1-carboxamide; trifluoroacetic acid] | < 100 nM
2 | CC(C)N1CCN(C(=O)N2CCC(c3cn(-c4ccc(Cl)cc4)c4cnccc34)CC2)CC1 [Compound 17, 1-({4-[1-(4-Chlorophenyl)-1H-pyrrolo[2,3-c]pyridin-3-yl]piperidin-1-yl}carbonyl)-4-(propan-2-yl)piperazine] | < 100 nM
3 | CCNC(=O)N1CCN(CC2CN(c3nn(-c4ccc(Cl)cc4)c4cnccc34)CCO2)CC1 (stereo not drawn) [Compound 39, 4-({4-[1-(4-Chlorophenyl)-1H-pyrazolo[3,4-c]pyridin-3-yl]morpholin-2-yl}methyl)-N-ethylpiperazine-1-carboxamide] | 100 to 500 nM
4 | CC(C)N1CCC(NC(=O)N2CCC(c3cn(-c4ccc(Cl)cc4)c4cnccc34)CC2)CC1 [Compound 9, 4-[1-(4-Chlorophenyl)-1H-pyrrolo[2,3-c]pyridin-3-yl]-N-[1-(propan-2-yl)piperidin-4-yl] piperidine-1-carboxamide] | < 100 nM
5 | O=C(NCCN1CCOCC1)N1CCC(c2cn(-c3ccc(Cl)cc3)c3cnccc23)CC1 [Compound 22, 4-[1-(4-Chlorophenyl)-1H-pyrrolo[2,3-c]pyridin-3-yl]-N-[2-(morpholin-4-yl)ethyl]piperidine-1-carboxamide] | < 100 nM
6 | CC(=O)OC1CCN(c2nn(-c3ccc(C)cc3)c3cnccc23)CC1 [Compound 52, 1-[1-(4-Methylphenyl)-1H-pyrazolo[3,4-c]pyridin-3-yl]piperidin-4-yl acetate] | < 100 nM
7 | O=C(NC1(c2nn[nH]n2)CCC1)N1CCC(c2cn(-c3ccc(Cl)cc3)c3cnccc23)CC1 [Compound 63, 4-[1-(4-Chlorophenyl)-1H-pyrrolo[2,3-c]pyridin-3-yl]-N-[1-(2H-1,2,3,4-tetrazol-5-yl)cyclobutyl]piperidine-1-carboxamide; trifluoroacetic acid] | < 100 nM
8 | NCCCOC(=O)N1CCN(CC2CN(c3nn(-c4ccc(Cl)cc4)c4cnccc34)CCO2)CC1 (stereo not drawn) [Compound 37, 3-Aminopropyl 4-({4-[1-(4-chlorophenyl)-1H-pyrazolo[3,4-c]pyridin-3-yl]morpholin-2-yl}methyl)piperazine-1-carboxylate trihydrochloride] | 100 to 500 nM
9 | CN1CCC(NC(=O)N2CCC(c3cn(-c4ccc(Cl)cc4)c4cnccc34)CC2)CC1 [Compound 8, 4-[1-(4-Chlorophenyl)-1H-pyrrolo[2,3-c]pyridin-3-yl]-N-(1-methylpiperidin-4-yl)piperidine-1-carboxamide] | < 100 nM
10 | CN1CCC(CCNC(=O)N2CCC(c3cn(-c4ccc(Cl)cc4)c4cnccc34)CC2)CC1 [Compound 24, 4-[1-(4-Chlorophenyl)-1H-pyrrolo[2,3-c]pyridin-3-yl]-N-[2-(1-methylpiperidin-4-yl)ethyl] piperidine-1-carboxamide] | < 100 nM
11 | O=C(CC1CCNCC1)N1CCC(c2cn(-c3ccc(Cl)cc3)c3cnccc23)CC1 [Compound 4, 1-{4-[1-(4-Chlorophenyl)-1H-pyrrolo[2,3-c]pyridin-3-yl]piperidin-1-yl}-2-(piperidin-4-yl)ethan-1-one] | < 100 nM
12 | Clc1ccc(-n2nc(NCCN3CCNCC3)c3ccncc32)cc1 [Compound 45, 1-(4-Chlorophenyl)-N-[2-(piperazin-1-yl)ethyl]-1H-pyrazolo[3,4-c]pyridin-3-amine] | 100 to 500 nM
13 | O=C(NCCCN1CCOCC1)N1CCC(c2cn(-c3ccc(Cl)cc3)c3cnccc23)CC1 [Compound 26, 4-(1-(4-Chlorophenyl)-1H-pyrrolo[2,3-c]pyridin-3-yl]-N-[3-(morpholin-4-yl)propyl] piperidine-1-carboxamide] | < 100 nM
14 | O=C(NCC1CCNCC1)C1CCN(c2nn(-c3ccc(Cl)cc3)c3cnccc23)CC1 [Compound 47, 1-[1-(4-Chlorophenyl)-1H-pyrazolo[3,4-c]pyridin-3-yl]-N-(piperidin-4-ylmethyl)piperidine-4-carboxamide dihydrochloride] | 100 to 500 nM
15 | Clc1ccc(-n2cc(C3CCN(C4CCNC4)CC3)c3ccncc32)cc1 (stereo not drawn) [Compound 1, 4-[1-(4-Chlorophenyl)-1H-pyrrolo[2,3-c]pyridin-3-yl]-1-(pyrrolidin-3-yl)piperidine] | < 100 nM
16 | O=C(NC(c1nn[nH]n1)C1CC1)N1CCC(c2cn(-c3ccc(Cl)cc3)c3cnccc23)CC1 (stereo not drawn) [Compound 62, 4-[1-(4-Chlorophenyl)-1H-pyrrolo[2,3-c]pyridin-3-yl]-N—[cyclopropyl(2H-1,2,3,4-tetrazol-5-yl)methyl]piperidine-1-carboxamide; trifluoroacetic acid] | < 100 nM
17 | CN1CCN(C(=O)N2CCC(c3cn(-c4ccc(Cl)cc4)c4cnccc34)CC2)CC1 [Compound 5, 1-({4-[1-(4-Chlorophenyl)-1H-pyrrolo[2,3-c]pyridin-3-yl]piperidin-1-yl}carbonyl)-4-methylpiperazine] | < 100 nM
18 | CN1CCN(CCNC(=O)N2CCC(c3cn(-c4ccc(Cl)cc4)c4cnccc34)CC2)CC1 [Compound 25, 4-[1-(4-Chlorophenyl)-1H-pyrrolo[2,3-c]pyridin-3-yl]-N-[2-(4-methylpiperazin-1-yl)ethyl] piperidine-1-carboxamide] | < 100 nM
19 | CCN1CCC(CNC(=O)N2CCC(c3cn(-c4ccc(Cl)cc4)c4cnccc34)CC2)CC1 [Compound 12, 4-[1-(4-Chlorophenyl)-1H-pyrrolo[2,3-c]pyridin-3-yl]-N-[(1-ethylpiperidin-4-yl)methyl] piperidine-1-carboxamide] | < 100 nM
20 | COC(=O)CC1COCCN1c1nn(-c2ccc(Cl)cc2)c2cnccc12 (stereo not drawn) [Compound 40, Methyl 2-{4-[1-(4-chlorophenyl)-1H-pyrazolo[3,4-c]pyridin-3-yl]morpholin-3-yl}acetate] | < 100 nM
21 | Clc1ccc(-n2nc(N3CCOCC3CN3CCOCC3)c3ccncc32)cc1 (stereo not drawn) [Compound 41, 4-[1-(4-Chlorophenyl)-1H-pyrazolo[3,4-c]pyridin-3-yl]-3-(morpholin-4-ylmethyl)morpholine] | 100 to 500 nM
22 | CC(C)N1CCC(CN(C)C(=O)N2CCC(c3cn(-c4ccc(Cl)cc4)c4cnccc34)CC2)CC1 [Compound 15, 4-[1-(4-Chlorophenyl)-1H-pyrrolo[2,3-c]pyridin-3-yl]-N-methyl-N-{[1-(propan-2-yl)piperidin-4-yl]methyl} piperidine-1-carboxamide] | < 100 nM
23 | Clc1ccc(-n2cc(C3CCN(CC4CCNCC4)CC3)c3ccncc32)cc1 [Compound 3, 4-[1-(4-Chlorophenyl)-1H-pyrrolo[2,3-c]pyridin-3-yl]-1-(piperidin-4-ylmethyl) piperidine] | 100 to 500 nM
24 | Cc1ccc(-n2nc(N3CCOC(COCCN)C3)c3ccncc32)cc1 (stereo not drawn) [Compound 32, 2-({4-[1-(4-Methylphenyl)-1H-pyrazolo[3,4-c]pyridin-3-yl]morpholin-2-yl}methoxy)ethan-1-amine] | 100 to 500 nM

From US20140275063A1, “NEW ENZYME INHIBITOR COMPOUNDS” (PROXIMAGEN LIMITED, priority 2011, published 2014)
